In the experiment the target is canine TRPM8 (Canis lupus familiaris, UniProt Q1A7N1). The experiment can be described thus: In Vitro Canine TRPM8 Functional Assay (Ca2+ fluorescence, icilin activation). The following applies: for IC50: HEK293 cells stably expressing canine TRPM8, icilin activation, eight-point dose-response, read-out: IC50; for inhibition at 0.2 µM: read-out: % Inh @ 0.2. The class given is cell-based. The procedure, abridged: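 Eight-point dose-response curves, each point averaging quadruplicate wells, gave EC50 or IC50. Canine TRPM8-expressing HEK293 cells, dye-loaded (Calcium 3), were pre-exposed 5 min to compound, then challenged with icilin at roughly EC80; intracellular Ca2+ read by FLIPR or FDSS fluorescence.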

[1] abbreviates: compound at 0.2 μM, canine TRPM8, icilin activation.

Read-outs that look alike come from different tables or passages of the source.

canine TRPM8, sequence (Q1A7N1 1-1104): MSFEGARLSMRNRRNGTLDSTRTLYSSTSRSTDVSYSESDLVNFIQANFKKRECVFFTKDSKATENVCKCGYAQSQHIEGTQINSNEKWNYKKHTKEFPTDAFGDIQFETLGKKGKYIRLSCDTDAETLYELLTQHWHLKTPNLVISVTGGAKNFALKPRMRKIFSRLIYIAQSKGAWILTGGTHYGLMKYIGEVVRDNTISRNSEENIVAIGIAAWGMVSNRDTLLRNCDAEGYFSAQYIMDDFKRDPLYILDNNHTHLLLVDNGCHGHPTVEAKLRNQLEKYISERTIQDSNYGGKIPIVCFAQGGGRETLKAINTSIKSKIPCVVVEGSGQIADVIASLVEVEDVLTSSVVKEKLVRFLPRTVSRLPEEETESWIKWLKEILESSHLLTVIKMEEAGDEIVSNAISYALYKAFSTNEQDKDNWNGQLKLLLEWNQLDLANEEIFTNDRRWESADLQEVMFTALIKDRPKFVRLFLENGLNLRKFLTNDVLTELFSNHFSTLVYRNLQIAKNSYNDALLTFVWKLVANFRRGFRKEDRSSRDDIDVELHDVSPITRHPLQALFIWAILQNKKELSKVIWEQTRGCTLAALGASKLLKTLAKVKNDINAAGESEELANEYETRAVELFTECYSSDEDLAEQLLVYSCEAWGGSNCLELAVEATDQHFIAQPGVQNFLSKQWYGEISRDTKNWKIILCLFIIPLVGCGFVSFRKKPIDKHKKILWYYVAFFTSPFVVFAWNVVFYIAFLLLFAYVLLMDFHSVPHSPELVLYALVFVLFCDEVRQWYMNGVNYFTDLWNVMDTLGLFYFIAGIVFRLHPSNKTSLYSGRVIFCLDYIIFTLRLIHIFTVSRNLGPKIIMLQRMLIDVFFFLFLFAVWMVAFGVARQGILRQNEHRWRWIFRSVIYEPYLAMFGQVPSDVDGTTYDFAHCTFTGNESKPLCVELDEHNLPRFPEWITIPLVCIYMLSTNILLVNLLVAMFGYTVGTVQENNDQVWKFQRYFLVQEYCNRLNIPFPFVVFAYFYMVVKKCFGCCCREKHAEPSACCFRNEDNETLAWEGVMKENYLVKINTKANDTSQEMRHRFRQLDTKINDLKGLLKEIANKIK

`CS(=O)(=O)Nc1cccc(S(=O)(=O)N(CCC(F)(F)F)c2sc3ccccc3c2Cl)c1` [Compound 714, N-(3-Chloro-benzo[b]thiophen-2-yl)-3-methanesulfonylamino-N-(3,3,3-trifluoro-propyl)-benzenesulfonamide]: the IC50 stood at 29 nM. Moreover, under setting [1], the inhibition at 0.2 µM came out at 96%.
Taken in the same sequence, the figures for `COc1cc(NS(C)(=O)=O)c(Cl)cc1S(=O)(=O)N(Cc1ccc(F)c(C(F)(F)F)c1)c1sc2ccccc2c1Cl` [Compound 766, 5-Chloro-N-(3-chloro-benzo[b]thiophen-2-yl)-N-(4-fluoro-3-trifluoromethyl-benzyl)-4-methanesulfonylamino-2-methoxy-benzenesulfonamide] were 7.8 nM and 101%.
Taken in the same sequence, the figures for `CC(=O)c1ccc(S(=O)(=O)N(Cc2ccc(F)c(C(F)(F)F)c2)c2sc3ccccc3c2C(C)(C)O)cc1` [Compound 389, 4-Acetyl-N-(4-fluoro-3-trifluoromethylbenzyl)-N-(3-(1-hydroxy-1-methyl-ethyl)-benzo[b]thiophen-2-yl)-benzenesulfonamide] were 10 nM and 97%.
On to `CNC1=C(N(Cc2ccc(F)c(C(F)(F)F)c2)S(=O)(=O)c2ccccc2)S(=O)(=O)c2ccccc21` [Compound 648, N-(4-Fluoro-3-trifluoromethyl-benzyl)-N-(3-methylamino-1,1-dioxo-1H-1λ^6-benzo[b]thiophen-2-yl)-benzenesulfonamide], for which the inhibition at 0.2 µM under setting [1] was determined as 62%.
Same read-out and setting: for `CCS(=O)(=O)N(C[C@@H]1CCC(=O)N1)c1sc2ccccc2c1C` [Compound 109, N-(3-Methyl-benzo[b]thiophen-2-yl)-N-(5-oxo-(S)-pyrrolidin-2-ylmethyl)-ethanesulfonamide] the value was 14%; for `COc1cc(NS(C)(=O)=O)ccc1S(=O)(=O)N(Cc1ccc(F)c(C(F)(F)F)c1)c1cc2ccccc2s1` [Compound 743, N-(Benzo[b]thiophen-2-yl)-N-(4-fluoro-3-trifluoromethyl-benzyl)-4-methanesulfonylamino-2-methoxy-benzenesulfonamide], 32%.
Consider `Cc1c(N(CCC2CC2)S(=O)(=O)c2nc3ccccc3n2C)sc2ccccc12` [Compound 745, N-(Cyclopropyl-ethyl)-N-(3-methyl-benzo[b]thiophen-2-yl)-1-methyl-1H-benzimidazole-2-sulfonamide], for which the half-inhibitory concentration (IC50) worked out at 84.9 nM. Also, the inhibition at 0.2 µM under setting [1] was 74%.
With `Cc1c(N(Cc2ccccc2)S(=O)(=O)c2ccc(OCc3ccccc3)c(F)c2)sc2ccccc12` [Compound 846, N-(Benzyl)-4-benzyloxy-3-fluoro-N-(3-methyl-benzo[b]thiophen-2-yl)-benzenesulfonamide], the inhibition at 0.2 µM (0.2 μM compound, HEK293 cells stably expressing canine TRPM8, icilin activation) was determined as 28%.
In the case of `CS(=O)(=O)Nc1ccc(S(=O)(=O)N(CCC(F)(F)F)c2cc3ccccc3s2)cc1` [Compound 507, N-(Benzo[b]thiophen-2-yl)-4-methanesulfonylamino-N-(3,3,3-trifluoro-propyl)-benzenesulfonamide], the IC50 worked out at 34 nM. Moreover, the inhibition at 0.2 µM under setting [1] was found to be 92%.
Taken in the same sequence, the figures for `Cc1nccc(-c2cccc(S(=O)(=O)N(Cc3ccc(F)c(C(F)(F)F)c3)c3sc4ccccc4c3C)c2)n1` [Compound 353, N-(3-Methyl-benzo[b]thiophen-2-yl)-N-(4-fluoro-3-trifluoromethyl-benzyl)-3-(2-methyl-pyrimidin-4-yl)-benzenesulfonamide] were 9.4 nM and 98%.
With `Cn1cnc(S(=O)(=O)N(Cc2ccc(F)c(F)c2)c2cc3ccccc3s2)c1` [Compound 130, N-(Benzo[b]thiophen-2-yl)-N-(3,4-difluoro-benzyl)-1-methyl-1H-imidazole-4-sulfonamide], the IC50 is 104 nM. The inhibition at 0.5 µM (compound at 0.5 μM, canine TRPM8, icilin activation, read-out: % Inh @ 0.5) worked out at 98%.
Turning to `Nc1ccc(S(=O)(=O)N(CCCCC(F)(F)F)c2sc3ccccc3c2Cl)cc1` [Compound 666, 4-Amino-N-(3-chloro-benzo[b]thiophen-2-yl)-N-(5,5,5-trifluoro-pentyl)-benzenesulfonamide], the IC50 was determined as 8.1 nM. Further, the inhibition at 0.2 µM under setting [1] came out at 103%.
Taken in the same sequence, the figures for `CC(=O)c1ccc(S(=O)(=O)N(Cc2ccc(F)c(C(F)(F)F)c2)c2sc3ccccc3c2Br)cc1` [Compound 312, N-(3-Bromo-benzo[b]thiophen-2-yl)-N-(4-fluoro-3-trifluoromethyl-benzyl)-4-acetyl-benzenesulfonamide] were 11 nM and 102%.
Taken in the same sequence, the figures for `Cc1c(N(CCCC(F)(F)F)S(=O)(=O)c2ccc(Oc3cccnc3)cc2)sc2ccccc12` [Compound 373, N-(3-Methyl-benzo[b]thiophen-2-yl)-N-(4,4,4-trifluoro-butyl)-4-(pyridin-3-yloxy)-benzenesulfonamide] were 123 nM and 77%.
Taken in the same sequence, the figures for `O=S1(=O)C(N(Cc2ccc(F)c(C(F)(F)F)c2)S(=O)(=O)c2ccccc2)=C(Br)c2ccccc21` [Compound 431, N-(3-Bromo-1,1-dioxo-benzo[b]thiophen-2-yl)-N-(4-fluoro-3-trifluoromethyl-benzyl)-benzenesulfonamide] were 20 nM and 88%.
With `O=c1[nH]c(-c2ccc(S(=O)(=O)N(CCC3CC3)c3sc4ccccc4c3Br)cc2)no1` [Compound 626, N-(3-Bromo-benzo[b]thiophen-2-yl)-N-(cyclopropyl-ethyl)-4-(5-oxo-4,5-dihydro-[1,2,4]oxadiazol-3-yl)-benzenesulfonamide], the IC50 worked out at 7.4 nM. For the same compound, the inhibition at 0.2 µM under setting [1] stood at 103%.
As to `Cc1c(N(Cc2ccc(F)c(C(F)(F)F)c2)S(=O)(=O)c2ccc(C(=O)O)cc2)sc2cc(C(F)(F)F)ccc12` [Compound 557, N-(3-Methyl-6-trifluoromethyl-benzo[b]thiophen-2-yl)-N-(4-fluoro-3-trifluoromethyl-benzyl)-4-carboxy-benzenesulfonamide], the inhibition at 0.2 µM under setting [1] was 39.5%.
On the same count and under the same terms, for `COC(=O)[C@H](C)CN(c1sc2ccccc2c1Br)S(=O)(=O)c1ccccc1` [Compound 245, N-(3-Bromo-benzo[b]thiophen-2-yl)-N-[2(R)-methyl-2-carbomethoxy-ethyl]-benzenesulfonamide] the value was 102%.
With `O=S(=O)(Nc1ccc(S(=O)(=O)N(CCC2CC2)c2sc3ccccc3c2Cl)cc1)C1CC1` [Compound 718, N-(3-Chloro-benzo[b]thiophen-2-yl)-4-cyclopropanesulfonylamino-N-(2-cyclopropyl-ethyl)-benzenesulfonamide], the concentration for half-maximal inhibition (IC50) came out at 39 nM. In addition, the inhibition at 0.2 µM under setting [1] was 96%.
As to `Cc1c(N(Cc2cc(F)c(F)c(F)c2)S(=O)(=O)c2ccc(C(=O)O)cc2)sc2ccccc12` [Compound 517, N-(3-Methyl-benzo[b]thiophen-2-yl)-N-(3,4,5-trifluoro-benzyl)-4-carboxy-benzenesulfonamide], the IC50 stood at 2 nM. Also, under setting [1], the inhibition at 0.2 µM was 102%.
Consider `Cc1c(N(Cc2ccc(F)c(C(F)(F)F)c2)S(=O)(=O)c2ccc(-c3cnco3)cc2)sc2ccccc12` [Compound 334], for which the IC50 was 6 nM. The inhibition at 0.2 µM under setting [1] was 98%.
Taken in the same sequence, the figures for `CCS(=O)(=O)N(CCC(F)(F)F)c1sc2ccccc2c1C(C)O` (centres unmarked) [Compound 282, N-(3-(1-Hydroxyethyl)benzo[b]thiophen-2-yl)-N-(3,3,3-trifluoro-propyl)-ethanesulfonamide] were 70 nM and 86%.
